Results published in patent US20220119355A1, “SATURATED-RING-FUSED DIHYDROPYRIMIDINONE OR DIHYDROTRIAZINONE COMPOUNDS AND PHARMACEUTICAL USE THEREOF” (Japan Tobacco Inc., priority 2018, published 2022).

Columns and labels:
[1] = target: T1, mouse RORγ (Mus musculus, UniProt P51450); experiment: In-vitro reporter gene assay for inhibitory activity against RORγ transcription, Test Method A (GAL4-mRORγ LBD / pG5-Luc in CHO cells); assay type: cell-based; conditions: luciferase reporter, 2 days
T1 construct: from Ile251 to Lys516 for mouse RORγ; expressed in transfected cells; host or cells: CHO cells (transient co-transfection with pG5-Luc)
T1 sequence (P51450 251-516): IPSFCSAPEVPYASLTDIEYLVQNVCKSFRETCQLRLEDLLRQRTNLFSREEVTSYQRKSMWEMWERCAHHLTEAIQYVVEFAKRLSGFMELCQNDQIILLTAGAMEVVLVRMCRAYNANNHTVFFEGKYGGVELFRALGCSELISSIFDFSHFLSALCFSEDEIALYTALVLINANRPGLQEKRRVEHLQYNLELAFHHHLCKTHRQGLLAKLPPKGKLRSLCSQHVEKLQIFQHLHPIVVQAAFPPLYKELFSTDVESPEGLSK
Method: (§1) In-Vitro Assay for Inhibitory Activity Against RORγ Transcription
(§2) Inhibitory activity against RORγ transcription was assessed for test compounds by either of the following Test Method A or B of reporter gene assay.
(§3) cDNAs encoding human and mouse RORγ ligand binding domains (LBD) were obtained based on the sequences of human RORγ (Genbank registered number NM_005060.3) and mouse RORγ (Genbank registered number NM_011281.2) (LBD sequences: from Ser253 to Lys518 for human RORγ; from Ile251 to Lys516 for mouse RORγ).
(§4) LBD cDNAs of human and mouse RORγ were inserted into pFA-CMV vector (Stratagene), which expresses GAL4-DNA binding domain fusion protein. The resulting plasmids are hereinafter referred to as GAL4-hRORγ plasmid and GAL4-mRORγ plasmid, respectively.
(§5) GAL4-hRORγ plasmid or GAL4-mRORγ plasmid was transiently co-transfected into Chinese hamster ovary cells (CHO cells) with pG5-Luc (Promega), reporter plasmid expressing firefly luciferase in a GAL4-dependent manner.
(§6) TransIT (Registered trademark) CHO Transfection Kit (Mirus) was used to co-transfect CHO cells with the plasmids. One day prior to the assay, CHO cells were suspended in HAM F-12 Nutrient medium containing 10% (v/v) fetal bovine serum and seeded at 6×10^6 cells per 175 cm^2 cell culture flask each. 54 μL of TransIT (Registered trademark) CHO reagent was added into a 15 mL tube containing 1.16 mL of HAM F-12 Nutrient medium without fetal bovine serum, and then mixed and incubated at room temperature for 10 minutes. 36 μL of a plasmid solution containing 400 ng of GAL4-hRORγ plasmid, 9000 ng of pG5-Luc plasmid, and 8600 ng of pcDNA3 plasmid were added into the tube and mixed gently. In the case of mouse assay, a plasmid solution containing 250 ng of GAL4-mRORγ plasmid, 9000 ng of pG5-Luc plasmid, and 8750 ng of pcDNA3 plasmid was added, instead. The mixture was incubated at room temperature for 10 minutes. 9 μL each of CHO Mojo Reagent were then added into each tube and mixed gently. The mixture was incubated at room temperature for 10 minutes. The resulting transfection reagent was applied to the cell culture. After incubation at 37° C., 5% CO2 for 4 hours, the plasmid-transfected CHO cells were harvested by trypsin treatment. The collected cells were resuspended in culture medium and plated into a 384-well-white plate at 8,000 cells/50 μL/well. The plate was let stand at room temperature for 1 hour and then further incubated at 37° C., 5% CO2 for 3 hours. A test compound was dissolved in DMSO to obtain a concentration of 10 mM. Each solution was serially diluted with DMSO and further diluted with culture medium just before use. The test compound solutions were added. to the cells in the plate at 8 different concentrations. The final concentration of DMSO was 0.2% (v/v). After the addition of test compound, the cells were incubated at […], 5% CO2 for 2 days.
(§7) RORγ transcriptional activity was detected as the intracellular luciferase activity using SteadyLite HTS Reporter Gene Assay System (Perkin Elmer). SteadyLite Reagent was diluted five-fold with Extension buffer (10 mM Tricine, 0.2% (w/v) bovine serum albumin, 0.02% (v/v) Tween-20) to obtain a luciferase substrate solution. After the measurement of the cell viability with Resazurin, the medium was removed in the plate and the luciferase substrate solution was added thereto. After the incubation at room temperature for 10 minutes, luminescence of each well was measured with a microplate reader. The luciferase activity derived from the luminescence count in a vehicle-control well treated with 0.2% DMSO alone was defined as 100%, and the luciferase activity after treatment with the test compound was calculated as a percentage, %-of-control, based on the value of the vehicle-control. An EC50 value of the test compound was calculated by curve fitting with GraphPad Prism. The luminescence counts at the concentration of test compound where cytotoxicity was observed were excluded from data analysis. […]

[2] = target: T2, human RORγ (Homo sapiens, UniProt P51449); experiment: In-vitro reporter gene assay for inhibitory activity against RORγ transcription, Test Method A (GAL4-hRORγ LBD / pG5-Luc in CHO cells); assay type: cell-based; conditions: luciferase reporter, 2 days
T2 construct: from Ser253 to Lys518 for human RORγ; expressed in transfected cells; host or cells: CHO cells (transient co-transfection with pG5-Luc)
T2 sequence (P51449 253-518): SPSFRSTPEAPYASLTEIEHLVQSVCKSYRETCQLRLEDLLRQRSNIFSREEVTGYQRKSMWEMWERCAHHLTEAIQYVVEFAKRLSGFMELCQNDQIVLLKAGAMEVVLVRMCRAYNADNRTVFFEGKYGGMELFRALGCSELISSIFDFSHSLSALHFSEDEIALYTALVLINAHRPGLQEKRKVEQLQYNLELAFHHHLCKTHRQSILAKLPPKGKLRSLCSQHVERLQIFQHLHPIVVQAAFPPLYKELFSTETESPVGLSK
Method: as §1, §2, §3, §4, §5, §6, §7

## CC(C)(C)COc1ccc(C23CCCC2=NNC(=O)N3)cc1Cl (racemic) [Example 1, 4a-[3-Chloro-4-(2,2-dimethyl-propoxy)phenyl]-2,4,4a,5,6,7-hexahydro-cyclopenta[1,2,4]triazin-3-one]
[1]
  EC50: 0.536 µM
[2]
  EC50: 1.69 µM

## CC(C)(C)CCc1ccc(C23CCC(C)(C)C2=CN(CCCC(=O)O)C(=O)N3)cc1 (racemic) [Example 2]
[1]
  EC50: 0.022 µM
[2]
  EC50: 0.03 µM

## CCOC(=O)CCN1C=C2CN(C(=O)OC(C)(C)C)CC2(c2ccc(CCC(C)(C)C)c(Cl)c2)NC1=O (racemic) [Example 13]
[1]
  EC50: 5.37 µM
[2]
  EC50: 5.7 µM

## CC(=O)N1CC2=CN(CCC(=O)O)C(=O)NC2(c2ccc(CCC(C)(C)C)c(Cl)c2)C1 (racemic) [Example 14]
[1]
  EC50: 3.8 µM
[2]
  EC50: 2.88 µM

## CC(C)(C)CCc1ccc(C23CCCC2=CNC(=O)N3)cc1Cl (racemic) [Example 23]
[1]
  EC50: 0.106 µM
[2]
  EC50: 0.224 µM

## CC(C)(C)CCc1ccc(C23CCCC2=CN(CCC(=O)O)C(=O)N3)cc1Cl (racemic) [Example 24]
[1]
  EC50: 0.126 µM
[2]
  EC50: 0.332 µM

## CC(=O)NCC1CCC2(c3ccc(CCC(C)(C)C)c(Cl)c3)NC(=O)N(CCC(=O)O)C=C12 (racemic) [Example 30]
[1]
  EC50: > 20 µM
[2]
  EC50: > 20 µM

## CC(C)(C)CCc1ccc(C23CCC(CC#N)C2=CN(CCC(=O)O)C(=O)N3)cc1Cl (racemic) [Example 31]
[1]
  EC50: 0.048 µM
[2]
  EC50: 0.048 µM

## CC(C)(C)COc1ccc(C23CCCCC2=NNC(=O)N3)cc1Cl (racemic) [Example 36]
[1]
  EC50: 0.071 µM
[2]
  EC50: 0.435 µM

## CC(C)(C)CCc1ccc(C23CCCCC2=CN(CCC(=O)O)C(=O)N3)cc1Cl (racemic) [Example 39]
[1]
  EC50: 0.021 µM
[2]
  EC50: 0.032 µM

## CC1=C2CCCCC2(c2ccc(CCC(C)(C)C)c(Cl)c2)NC(=O)N1CCC(=O)O (racemic) [Example 42]
[1]
  EC50: 0.139 µM
[2]
  EC50: 0.29 µM

## CC(C)(C)CCc1ccc(C23CCCC(CCOCc4ccccc4)C2=CN(CCC(=O)O)C(=O)N3)cc1Cl (racemic) [Example 43]
[1]
  EC50: 0.159 µM
[2]
  EC50: 0.043 µM

## CC(C)(C)CCc1ccc(C23CCCC(CCO)C2=CN(CCC(=O)O)C(=O)N3)cc1Cl (racemic) [Example 44]
[1]
  EC50: 0.482 µM
[2]
  EC50: 1.27 µM

## CCOC(=O)CCN1C=C2C(CC(=O)O)CCCC2(c2ccc(CCC(C)(C)C)c(Cl)c2)NC1=O (racemic) [Example 45]
[1]
  EC50: 0.84 µM
[2]
  EC50: 1.63 µM

## COCCC1CCCC2(c3ccc(CCC(C)(C)C)c(Cl)c3)NC(=O)N(CCC(=O)O)C=C12 (racemic) [Example 46]
[1]
  EC50: 0.211 µM
[2]
  EC50: 0.302 µM

## CCOC(=O)CCN1C=C2C(CN)CCCC2(c2ccc(CCC(C)(C)C)c(Cl)c2)NC1=O (racemic) [Example 47]
[1]
  EC50: 8.83 µM
[2]
  EC50: > 8 µM

## CC(C)(C)CCc1ccc(C23CCCC(CCOS(C)(=O)=O)C2=CN(CCC(=O)O)C(=O)N3)cc1Cl (racemic) [Example 48]
[1]
  EC50: 1.87 µM
[2]
  EC50: 1.99 µM

## CCOC(=O)CCN1C=C2C(CCNC)CCCC2(c2ccc(CCC(C)(C)C)c(Cl)c2)NC1=O (racemic) [Example 49]
[1]
  EC50: > 3.2 µM
[2]
  EC50: > 3.2 µM

## CCOC(=O)CCN1C=C2C(CCN(C)C)CCCC2(c2ccc(CCC(C)(C)C)c(Cl)c2)NC1=O (racemic) [Example 50]
[1]
  EC50: 7.48 µM
[2]
  EC50: > 8 µM

## CC(C)(C)CCc1ccc(C23CCCC(CC(N)=O)C2=CN(CCC(=O)O)C(=O)N3)cc1Cl (racemic) [Example 51]
[1]
  EC50: 1.8 µM
[2]
  EC50: 4.97 µM

## CC(C)(C)CCc1ccc(C23CCCC(CC#N)C2=CN(CCC(=O)O)C(=O)N3)cc1Cl (racemic) [Example 52]
[1]
  EC50: 0.029 µM
[2]
  EC50: 0.018 µM

## CC(C)(C)CCc1ccc(C23CCCC(CO)C2=CN(CCC(=O)O)C(=O)N3)cc1Cl (racemic) [Example 55]
[1]
  EC50: 0.058 µM
[2]
  EC50: 0.093 µM

## COCC1CCCC2(c3ccc(CCC(C)(C)C)c(Cl)c3)NC(=O)N(CCC(=O)O)C=C12 (racemic) [Example 56]
[1]
  EC50: 0.029 µM
[2]
  EC50: 0.02 µM

## CC1CCCC2(c3ccc(CCC(C)(C)C)c(Cl)c3)NC(=O)N(CCC(=O)O)C=C12 (racemic) [Example 57]
[1]
  EC50: 0.021 µM
[2]
  EC50: 0.034 µM

## CC(C)(C)CCc1ccc(C23COCCC2=CN(CCC(=O)O)C(=O)N3)cc1Cl (racemic) [Example 58]
[1]
  EC50: 0.02 µM
[2]
  EC50: 0.033 µM

## CC(C)CCOc1ccc(C23CCCCC2=CN(CCC(=O)O)C(=O)N3)cc1Cl (racemic) [Example 59]
[1]
  EC50: 0.149 µM
[2]
  EC50: 0.279 µM

## CC(C)(C)COc1ccc(C23CCCCC2=CN(CCC(=O)O)C(=O)N3)cc1Cl (racemic) [Example 60]
[1]
  EC50: 0.072 µM
[2]
  EC50: 0.118 µM

## CC(C)(C)CCOc1ccc(C23CCCCC2=CN(CCC(=O)O)C(=O)N3)cc1Cl (racemic) [Example 61]
[1]
  EC50: 0.068 µM
[2]
  EC50: 0.106 µM

## O=C(O)CCN1C=C2CCCCC2(c2ccc(OCCC3CCC3)c(Cl)c2)NC1=O (racemic) [Example 62]
[1]
  EC50: 0.099 µM
[2]
  EC50: 0.151 µM

## CC(C)(C)CCc1ccc(C23CCC(F)(F)CC2=CN(CCC(=O)O)C(=O)N3)cc1Cl (racemic) [Example 63]
[1]
  EC50: 0.022 µM
[2]
  EC50: 0.022 µM

## CC(C)(C)CCc1ccc(C23CC(C)(C)CCC2=CN(CCC(=O)O)C(=O)N3)cc1Cl (racemic) [Example 64]
[1]
  EC50: 0.052 µM
[2]
  EC50: 0.034 µM

## O=C(O)CCN1C=C2CCCCC2(c2ccc(OCC3(C(F)(F)F)CC3)c(Cl)c2)NC1=O (racemic) [Example 65]
[1]
  EC50: 0.16 µM
[2]
  EC50: 1.16 µM

## CC1CCCC2(c3ccc(CCC(C)(C)C)c(Cl)c3)NC(=O)N(C34CC(C(=O)O)(C3)C4)C=C12 (racemic) [Example 73]
[1]
  EC50: 0.027 µM
[2]
  EC50: 0.014 µM

## CC(C)(C)CCc1ccc(C23CCC(C)(C)CC2=CN(CCC(=O)O)C(=O)N3)cc1Cl (racemic) [Example 74]
[1]
  EC50: 0.024 µM
[2]
  EC50: 0.016 µM

## CC(C)(C)CCc1ccc(C23CCC(C)(C)C2=CN(CCC(=O)O)C(=O)N3)cc1Cl (single isomer, unassigned) [Example 3, 3-{7a-[3-Chloro-4-(3,3-dimethyl-butyl)phenyl]-5,5-dimethyl-2-oxo-1,2,5,6,7,7a-hexahydro-cyclopentapyrimidin-3-yl}propionate]
[1]
  EC50: 0.013 µM
[2]
  EC50: 0.008 µM

## CC(C)(C)CCc1ccc(C23CCC(C)(C)C2=CN(CCC(=O)O)C(=O)N3)cc1Cl (single isomer, unassigned) [Example 4]
[1]
  EC50: 1.01 µM
[2]
  EC50: 1.02 µM
